Consider 20 compounds from patent US9440978B2, “Imidazolo-, oxazolo-, and thiazolopyrimidine modulators of TRPV1” (Janssen Pharmaceutica NV, priority 2007, dated 2016).

For one test, the target named is T1, human TRPV1 (Homo sapiens, UniProt Q8NER1).
T1 construct: expressed in transfected cells; host or cells: HEK293
Put plainly: Block of capsaicin-induced Ca2+ influx, human assay (hTRPV1/HEK293, FLIPR). The test is classed as cell-based. The settings on record: HEK293 cells transfected with human TRPV1; 150 nM capsaicin challenge; mean; > value = solubility limit in assay medium.

The target in a further test is T2, rat TRPV1 (Rattus norvegicus, UniProt O35433).
T2 construct: expressed in transfected cells; host or cells: HEK293
Description: Block of capsaicin-induced Ca2+ influx, rat assay (rTRPV1/HEK293, FLIPR). The test is classed as cell-based. The settings on record: HEK293 cells transfected with rat TRPV1; capsaicin challenge; mean; > value = solubility limit in assay medium; read-out: Rat IC50. In outline: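 HEK293 cells expressing rat TRPV1, Fluo-3 loaded, preincubated 30 min with compound in 20 μM Ca2+ buffer (serial three-fold dilutions, usually from 10 μM, duplicate). Capsaicin-evoked fluorescence change over 100 s measured on FLIPR; IC50 by non-linear regression, averaged across runs.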

Structures can show the parent of a compound that is named as a salt.

T2 sequence (O35433 whole entry): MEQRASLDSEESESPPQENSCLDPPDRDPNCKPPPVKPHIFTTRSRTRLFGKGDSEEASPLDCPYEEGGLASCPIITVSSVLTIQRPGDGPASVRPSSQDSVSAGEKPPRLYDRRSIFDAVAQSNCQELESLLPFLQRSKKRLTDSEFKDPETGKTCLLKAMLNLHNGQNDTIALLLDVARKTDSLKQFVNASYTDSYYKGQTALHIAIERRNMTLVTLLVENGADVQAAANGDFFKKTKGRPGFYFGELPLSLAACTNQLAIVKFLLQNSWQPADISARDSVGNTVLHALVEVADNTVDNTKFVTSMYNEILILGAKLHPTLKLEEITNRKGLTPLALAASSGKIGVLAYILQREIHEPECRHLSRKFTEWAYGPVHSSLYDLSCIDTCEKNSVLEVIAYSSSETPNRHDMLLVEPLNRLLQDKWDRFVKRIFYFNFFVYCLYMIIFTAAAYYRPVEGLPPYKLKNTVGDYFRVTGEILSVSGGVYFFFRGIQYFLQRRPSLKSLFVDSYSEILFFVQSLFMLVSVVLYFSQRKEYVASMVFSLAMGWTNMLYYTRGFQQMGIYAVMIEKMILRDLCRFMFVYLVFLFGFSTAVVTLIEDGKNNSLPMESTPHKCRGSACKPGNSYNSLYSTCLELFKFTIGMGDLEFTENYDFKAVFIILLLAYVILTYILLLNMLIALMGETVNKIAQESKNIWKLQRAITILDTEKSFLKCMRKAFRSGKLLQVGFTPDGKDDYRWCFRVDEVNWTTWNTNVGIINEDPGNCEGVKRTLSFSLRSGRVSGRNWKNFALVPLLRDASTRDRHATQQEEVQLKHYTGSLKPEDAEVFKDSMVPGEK
T1 sequence (Q8NER1 whole entry): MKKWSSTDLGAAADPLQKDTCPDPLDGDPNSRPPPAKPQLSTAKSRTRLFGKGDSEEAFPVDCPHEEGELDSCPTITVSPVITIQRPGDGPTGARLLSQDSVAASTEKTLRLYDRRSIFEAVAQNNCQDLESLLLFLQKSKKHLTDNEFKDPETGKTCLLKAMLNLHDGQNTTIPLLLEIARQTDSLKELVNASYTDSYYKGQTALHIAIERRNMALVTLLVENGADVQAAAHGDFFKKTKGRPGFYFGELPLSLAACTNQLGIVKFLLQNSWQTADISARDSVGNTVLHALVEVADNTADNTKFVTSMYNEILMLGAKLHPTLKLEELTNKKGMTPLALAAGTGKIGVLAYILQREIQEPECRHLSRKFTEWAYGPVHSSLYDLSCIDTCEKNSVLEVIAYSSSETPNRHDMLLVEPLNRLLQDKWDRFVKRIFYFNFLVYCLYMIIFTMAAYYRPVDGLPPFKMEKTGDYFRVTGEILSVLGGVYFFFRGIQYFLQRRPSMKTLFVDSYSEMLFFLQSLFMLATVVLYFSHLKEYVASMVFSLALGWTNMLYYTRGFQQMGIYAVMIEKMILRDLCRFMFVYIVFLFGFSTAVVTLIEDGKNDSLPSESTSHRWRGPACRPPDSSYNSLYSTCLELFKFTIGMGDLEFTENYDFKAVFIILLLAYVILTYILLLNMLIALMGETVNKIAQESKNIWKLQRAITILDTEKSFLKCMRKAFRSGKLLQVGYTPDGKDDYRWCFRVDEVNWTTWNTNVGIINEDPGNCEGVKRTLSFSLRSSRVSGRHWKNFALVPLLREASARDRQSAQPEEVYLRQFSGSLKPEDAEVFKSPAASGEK

As a reminder, the IC50 is the concentration that gives 50% inhibition. Take `FC(F)(F)c1ccc(Nc2nc(NC3CC3)nc3sc(Cc4c(Cl)cccc4Cl)nc23)cc1` [Example 78, N^5-Cyclopropyl-2-(2,6-dichloro-benzyl)-N^7-(4-trifluoromethyl-phenyl)-thiazolo[5,4-d]pyrimidine-5,7-diamine]: the IC50 came out at 316 nM on human TRPV1 and 215 nM on rat TRPV1.

Take `FC(F)(F)c1ccc(Nc2nc(NC3CCC3)nc3sc(Cc4c(Cl)cccc4Cl)nc23)cc1` [Example 79, N^5-Cyclobutyl-2-(2,6-dichloro-benzyl)-N^7-(4-trifluoromethyl-phenyl)-thiazolo[5,4-d]pyrimidine-5,7-diamine]: the IC50 against human TRPV1 stood at 104 nM; at rat TRPV1 it was 32 nM.

On to `CC(C)CN(CC(C)C)c1nc(Nc2ccc(C(F)(F)F)cc2)c2nc(Cc3c(Cl)cccc3Cl)sc2n1` [Example 80, 2-(2,6-Dichloro-benzyl)-N^5,N^5-diisobutyl-N^7-(4-trifluoromethyl-phenyl)-thiazolo[5,4-d]pyrimidine-5,7-diamine], for which the IC50 is 4650 nM against human TRPV1 and 4040 nM at rat TRPV1.

On to `CC(C)CN1CCN(c2nc(Nc3ccc(C(F)(F)F)cc3)c3nc(Cc4c(Cl)cccc4Cl)sc3n2)CC1` [Example 83, [2-(2,6-Dichloro-benzyl)-5-(4-isobutyl-piperazin-1-yl)-thiazolo[5,4-d]pyrimidin-7-yl]-(4-trifluoromethyl-phenyl)-amine trifluoroacetic acid salt], for which the IC50 amounted to 136 nM against human TRPV1 and 12 nM on rat TRPV1.

As to `FC(F)(F)c1ccc(Nc2nc(NCc3ccccn3)nc3sc(Cc4c(Cl)cccc4Cl)nc23)cc1` [Example 84, 2-(2,6-Dichloro-benzyl)-N^5-pyridin-2-ylmethyl-N^7-(4-trifluoromethyl-phenyl)-thiazolo[5,4-d]pyrimidine-5,7-diamine trifluoroacetic acid salt], the IC50 against human TRPV1 turned out to be 263 nM; on rat TRPV1, 38 nM.

Take `FC(F)(F)c1ccc(Nc2nc(NCc3cccnc3)nc3sc(Cc4c(Cl)cccc4Cl)nc23)cc1` [Example 85, 2-(2,6-Dichloro-benzyl)-N^5-pyridin-3-ylmethyl-N^7-(4-trifluoromethyl-phenyl)-thiazolo[5,4-d]pyrimidine-5,7-diamine trifluoroacetic acid salt]: the IC50 amounted to 433 nM on human TRPV1 and 112 nM on rat TRPV1.

Regarding `FC(F)(F)c1ccc(Nc2nc(NCc3ccncc3)nc3sc(Cc4c(Cl)cccc4Cl)nc23)cc1` [Example 86, 2-(2,6-Dichloro-benzyl)-N^5-pyridin-4-ylmethyl-N^7-(4-trifluoromethyl-phenyl)-thiazolo[5,4-d]pyrimidine-5,7-diamine trifluoroacetic acid salt], the IC50 came to 1070 nM on human TRPV1 and 187 nM at rat TRPV1.

Regarding `CC(Nc1nc(Nc2ccc(C(F)(F)F)cc2)c2nc(Cc3c(Cl)cccc3Cl)sc2n1)c1ccccn1` (stereo not shown) [Example 87, 2-(2,6-Dichlorobenzyl)-N^5-(1-pyridin-2-ylethyl)-N^7-[4-(trifluoromethyl)phenyl][1,3]thiazolo[5,4-d]pyrimidine-5,7-diamine], the IC50 against human TRPV1 was determined as 50 nM; on rat TRPV1, 21 nM.

Regarding `CCN1CCCC1CNc1nc(Nc2ccc(C(F)(F)F)cc2)c2nc(Cc3c(Cl)cccc3Cl)sc2n1` (stereo not shown) [Example 88, 2-(2,6-Dichlorobenzyl)-N^5-[(1-ethylpyrrolidin-2-yl)methyl]-N^7-[4-(trifluoromethyl)phenyl][1,3]thiazolo[5,4-d]pyrimidine-5,7-diamine], the IC50 on human TRPV1 was 964 nM; on rat TRPV1, 1040 nM.

For the compound `FC(F)(F)c1ccc(Nc2nc(NCC3CCCCN3)nc3sc(Cc4c(Cl)cccc4Cl)nc23)cc1` (stereo not shown) [Example 90, 2-(2,6-Dichlorobenzyl)-N^5-(piperidin-2-ylmethyl)-N^7-[4-(trifluoromethyl)phenyl][1,3]thiazolo[5,4-d]pyrimidine-5,7-diamine hydrochloride salt], the IC50 on human TRPV1 worked out at 6050 nM; at rat TRPV1, 9710 nM.

Turning to `FC(F)(F)c1ccc(Nc2nc(NCC3CCCNC3)nc3sc(Cc4c(Cl)cccc4Cl)nc23)cc1` (stereo not shown) [Example 91, 2-(2,6-Dichlorobenzyl)-N^5-(piperidin-3-ylmethyl)-N^7-[4-(trifluoromethyl)phenyl][1,3]thiazolo[5,4-d]pyrimidine-5,7-diamine hydrochloride salt], the IC50 against human TRPV1 came to 4050 nM; at rat TRPV1, 3160 nM.

In the case of `FC(F)(F)c1ccc(Nc2nc(NCC3CCNCC3)nc3sc(Cc4c(Cl)cccc4Cl)nc23)cc1` [Example 92, 2-(2,6-Dichlorobenzyl)-N^5-(piperidin-4-ylmethyl)-N^7-[4-(trifluoromethyl)phenyl][1,3]thiazolo[5,4-d]pyrimidine-5,7-diamine hydrochloride salt], the IC50 turned out to be 4720 nM on human TRPV1 and 4340 nM at rat TRPV1.

With `FC(F)(F)c1cnc(Nc2ncnc3sc(Cc4c(Cl)cccc4Cl)nc23)cn1` [Example 93, [2-(2,6-Dichloro-benzyl)-thiazolo[5,4-d]pyrimidin-7-yl]-(5-trifluoromethyl-pyrazin-2-yl)-amine], the IC50 on human TRPV1 came to 276 nM; on rat TRPV1 it was 231 nM.

Turning to `FC(F)(F)c1ccc(Nc2ncnc3sc(Cc4c(Cl)cccc4Cl)nc23)nc1` [Example 94, [2-(2,6-Dichloro-benzyl)-thiazolo[5,4-d]pyrimidin-7-yl]-(5-trifluoromethyl-pyridin-2-yl)-amine], the IC50 against human TRPV1 was 924 nM; at rat TRPV1, 246 nM.

Turning to `FC(F)(F)c1ccc(Nc2ncnc3sc(Cc4ccccc4C(F)(F)F)nc23)nc1` [Example 95, 2-[2-(Trifluoromethyl)benzyl]-N-[5-(trifluoromethyl)pyridin-2-yl][1,3]thiazolo[5,4-d]pyrimidin-7-amine], the IC50 against human TRPV1 is 292 nM; at rat TRPV1, 119 nM.

As for `FC(F)(F)c1ccc(Nc2ncnc3sc(Cc4ccccc4Cl)nc23)nc1` [Example 96, [2-(2-Chloro-benzyl)-thiazolo[5,4-d]pyrimidin-7-yl]-(5-trifluoromethyl-pyridin-2-yl)-amine], the IC50 against human TRPV1 was determined as 466 nM; at rat TRPV1, 224 nM.

Consider `Cc1nc(Nc2ccc(C(F)(F)F)cn2)c2nc(Cc3c(Cl)cccc3Cl)sc2n1` [Example 97, [2-(2,6-Dichloro-benzyl)-5-methyl-thiazolo[5,4-d]ovrimidin-7-yl]-(5-trifluoromethyl-hyridin-2-yl)-amine], for which the results for the IC50 on human TRPV1 and on rat TRPV1 were 1030 nM and 158 nM, respectively.

With `N#Cc1ccccc1Cc1nc2c(Nc3ccc(C(F)(F)F)cc3)ncnc2s1` [Example 100, 2-[7-(4-Trifluoromethyl-phenylamino)-thiazolo[5,4-d]pyrimidin-2-ylmethyl]-benzonitrile], the IC50 against human TRPV1 is 126 nM; at rat TRPV1 it was 62 nM.

With `COc1nc(Nc2ccc(C(F)(F)F)cc2)c2nc(Cc3c(Cl)cccc3Cl)sc2n1` [Example 101, [2-(2,6-Dichloro-benzyl)-5-methoxy-thiazolo[5,4-d]pyrimidin-7-yl]-(4-trifluoromethyl-phenyl)-amine], the IC50 on human TRPV1 is 207 nM; on rat TRPV1, 34 nM.

On to `CC(C)Oc1nc(Nc2ccc(C(F)(F)F)cc2)c2nc(Cc3c(Cl)cccc3Cl)sc2n1` [Example 102, [2-(2,6-Dichloro-benzyl)-5-isopropoxy-thiazolo[5,4-d]pyrimidin-7-yl]-(4-trifluoromethyl-phenyl)-amine], for which the IC50 worked out at 188 nM against human TRPV1 and 74 nM on rat TRPV1.
